Patent US12385839B2, “Use of protein in predicting drug properties” (priority 2021, dated 2025)
Like-named read-outs stand apart in the source and are kept apart here.

Legend:
[1] = cited from earlier work; for LD50: modelling table; for Toxicity: toxicity grade by LD50, trailing figure = number of pesticides in group
[2] = biological target: T1, human serum albumin (HSA) (Homo sapiens, UniProt P02768); assay: Circular dichroism spectrum, secondary structure (α-helix content) of HSA; details: HSA 2×10^−6 M
Experimental: the mixed solution to be tested was preheated at […] for 2-5 minutes, and the CD spectrum of HSA was recorded in the wavelength range of 200-500 nm . The concentration of HSA was kept at 2×10^−6 M, and the pesticide was (0-20)×10^−6 m. Firstly, HSA was measured, and then the ratio of HSA to pesticides needed to be determined specifically, which was preliminarily determined according to the ratio of 1:1, 1:2 and 1:3.
According to the following equation, the result of CD spectrum was usually expressed as the mean residue ellipticity (MRE), and the unit was deg·cm^2·dmol^−1. MRE=ObservedCD(mdeg)/(10Cpnl) (9);
in which Cp is the molar concentration of protein, n is the number (585) of amino acid residues, and 1 is the path length (1 mm). The α helicity of free and bound HSA is calculated from MRE values using the following formula: α−Helix(%)=[(−MRE208−4000)×100]/(33000-4000) (10)
in which the MRE208 is the MRE value observed at 208 nm , 4000 is the MRE value of random coil conformation at 208 nm , and […] is the MRE value of pure α helix at 208 nm .

[3] = biological target: T1, human serum albumin (HSA); assay: Fluorescence emission spectrum (quenching) of HSA with carbamate pesticides; assay type: binding; details: for Ksv (37°) / ΔG(37°) / Binding distance/r / Number of binding sites/n: modelling table; for Kq / Ksv / n (number of binding sites) / Kd: pH 7.4; for R (binding distance): Förster energy transfer; for fluorescence of HSA quenched by pesticide: titration of pesticide; for ΔH^0 / ΔS^0: Van't Hoff, 296-310 K
Experimental: the mixed solution to be tested was preheated at […] for 3 minutes, and the emission spectrum of HSA with carbamate pesticides was measured at 300-500 nm . The excitation wavelength was set at 280 nm , and the slit width for both excitation and emission was 15 nm; the HSA concentration was kept constant at 5×10^−7 M, and the pesticide concentration was (0-105)×10^−7 M.
The internal filtering effect of fluorescence signal was corrected according to the following formula: Fcor=Fobsexp[(Aex+Aem)/2] (1);
in this formula, Fcor and Fobs represent corrected fluorescence signal and observed fluorescence signal, respectively, and Aex and Aem represent absorbance of the mixed solution to be tested at excitation wavelength and emission wavelengths, respectively; the quenching constant, number of binding sites, binding constant, free energy and binding distance of different drugs were obtained by fluorescence emission spectra, and a BP neural network model was obtained. Specifically, they were obtained as follows:
There is a linear relationship between F0/F and [Q] to distinguish whether it is static quenching or dynamic quenching. The fluorescence quenching data are analyzed by Stern-Volmer equation to clarify the quenching mechanism: F0/F=1+KSV[Q]=1+Kqτ0[Q] (2);
in the formula, F0 and F are fluorescence signals […] quencher, respectively. Ksv is Stern-Volmer quenching constant; Kq is a quenching rate constant of biomolecules; τ0 is the average lifetime of biomolecules without quencher (about 10^−8 s); [Q] is the concentration of quencher.
The maximum dynamic quenching rate constant of all kinds of quenchers on polymers was 2.0×10^10 L·mol^−1·s^−1. Static quenching and dynamic quenching could be judged according to this value. If K^q was greater than 2.0×10^10 L·mol^−1·s^−1, it belonged to static quenching. Otherwise, it belonged to dynamic quenching.
In this part, the binding sites and binding constants between carbamate pesticides and HSA were calculated. The following formula was used to calculate the number of binding sites (n) and the binding constant (Ka) of carbamate pesticides and HSA: log[(F0−F)/F]=log Ka+nlog[Q] (3);
The interactions between biological molecules and drug molecules were weak intermolecular interactions, including hydrogen bonds, van der Waals forces, electrostatic forces and hydrophobic interactions. By using Van't Hoff equation, the thermodynamic constants of drug-protein interaction were obtained, and the main types of drug-protein interaction were judged according to the changes of binding constants under different conditions. LnK=−ΔH^0/RT+ΔS^0/R (4); ΔG^0=ΔH^0−TΔS^0 (5);
There is a relationship among energy transfer efficiency E, distance r between energy donor and energy receptor and energy transfer distance R0. E=1−F/F0=R0^6/(R0^6+r^6) (6);
E represents the transfer efficiency between donor and receptor, r is the average distance between donor and receptor, and R0 is the critical distance when the transfer efficiency is 50%. R0^6=8.79×10^−K^2N^−4φJ (7)
K^2 is the orientation related to the geometry of donor and receptor of dipole. For random orientation in fluid, K^2=2/3; N is the average refractive index of the medium in the wavelength range with obvious spectral overlap, and the refractive index of water and organic matter is 1.336; φ is the quantum yield of donor, and the quantum yield of tryptophan in HSA is about 0.118; J represents the influence of spectral overlap between the emission spectrum of the donor and the absorption spectrum of the receptor, and can be calculated by the following formula: j=ΣF(λ)ϵ(λ)λ^4Δλ/ΣF(λ) Δλ (8);
F(λ) is the corrected fluorescence signal of the donor in the wavelength range from λ to (λ+Δλ), while ϵ(λ) is the extinction coefficient of the receptor at λ.

T1 sequence (P02768 25-609): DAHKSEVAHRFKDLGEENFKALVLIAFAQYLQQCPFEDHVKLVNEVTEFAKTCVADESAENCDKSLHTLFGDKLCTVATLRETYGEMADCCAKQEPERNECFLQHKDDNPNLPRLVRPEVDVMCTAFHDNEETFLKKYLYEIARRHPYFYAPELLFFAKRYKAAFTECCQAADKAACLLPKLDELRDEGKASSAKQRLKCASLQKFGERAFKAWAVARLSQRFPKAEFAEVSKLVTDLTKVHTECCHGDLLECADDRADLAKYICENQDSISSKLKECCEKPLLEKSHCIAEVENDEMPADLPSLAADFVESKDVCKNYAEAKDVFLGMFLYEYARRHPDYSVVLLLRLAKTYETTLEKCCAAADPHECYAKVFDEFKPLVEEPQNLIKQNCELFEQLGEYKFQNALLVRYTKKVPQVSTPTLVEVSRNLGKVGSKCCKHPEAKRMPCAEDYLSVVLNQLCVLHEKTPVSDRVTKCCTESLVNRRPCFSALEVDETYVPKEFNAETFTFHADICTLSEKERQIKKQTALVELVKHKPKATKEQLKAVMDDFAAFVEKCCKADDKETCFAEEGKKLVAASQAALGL

CNC(=O)O/N=C(\SC)C(=O)N(C)C [Oxamyl, oxamyl]
LD50 [1]: 2.5 mg/kg
Toxicity [1]: Highly
α-helix contents ([2]; 5:1 (Pesticide:HSA)): 50.883%
α-helix contents ([2]; 10:1 (Pesticide:HSA)): 49.354%
Ksv (37°) [3]: 66054.55780
ΔG(37°) [3]: −22.83
ΔG^0 ([3]; 296 K): -4.8592 kcal/mol
Kq ([3]; 296 K): 5.229 ± 0.185 10^12 M^−1s^−1
Ksv ([3]; 296 K): 5.229 ± 0.185 10^4 M^−1
n (number of binding sites) ([3]; 296 K): 0.774 ± 0.016
Kd ([3]; 296 K, read-out: Ka (binding constant)): 255 µM
ΔG^0 ([3]; 303 K): -5.158 kcal/mol
Kq ([3]; 303 K): 5.735 ± 0.073 10^12 M^−1s^−1
Ksv ([3]; 303 K): 5.735 ± 0.073 10^4 M^−1
n (number of binding sites) ([3]; 303 K): 0.789 ± 0.004
Kd ([3]; 303 K, read-out: Ka (binding constant)): 195 µM
ΔG^0 ([3]; 310 K): -5.4567 kcal/mol
R (binding distance) ([3]; 310 K): 2.564 nm
Kq ([3]; 310 K): 6.605 ± 0.058 10^12 M^−1s^−1
Ksv ([3]; 310 K): 6.605 ± 0.058 10^4 M^−1
n (number of binding sites) ([3]; 310 K): 0.807 ± 0.003
Kd ([3]; 310 K, read-out: Ka (binding constant)): 141 µM
fluorescence of HSA quenched by pesticide ([3]; 310 K): quenched
ΔH^0 [3]: 7.7713 kcal/mol
ΔS^0 [3]: 178.534 J · mol^−1 · K^−1
Binding distance/r [3]: 2.564
Number of binding sites/n [3]: 0.8074

CNC(=O)Oc1cc(C)cc(C(C)C)c1 [Promecarb, promecarb]
LD50 [1]: 35 mg/kg
Toxicity [1]: Highly
α-helix contents ([2]; 5:1 (Pesticide:HSA)): 48.610%
α-helix contents ([2]; 10:1 (Pesticide:HSA)): 48.538%
Ksv (37°) [3]: 58172.07681
ΔG(37°) [3]: −21.38
ΔG^0 ([3]; 296 K): -3.5213 kcal/mol
Kq ([3]; 296 K): 2.409 ± 0.154 10^12 M^−1s^−1
Ksv ([3]; 296 K): 2.409 ± 0.154 10^4 M^−1
n (number of binding sites) ([3]; 296 K): 0.645 ± 0.004
ΔG^0 ([3]; 303 K): -4.316 kcal/mol
Kq ([3]; 303 K): 3.705 ± 0.060 10^12 M^−1s^−1
Ksv ([3]; 303 K): 3.705 ± 0.060 10^4 M^−1
n (number of binding sites) ([3]; 303 K): 0.704 ± 0.008
ΔG^0 ([3]; 310 K): -5.1107 kcal/mol
R (binding distance) ([3]; 310 K): 2.316 nm
Kq ([3]; 310 K): 5.817 ± 0.219 10^12 M^−1s^−1
Ksv ([3]; 310 K): 5.817 ± 0.219 10^4 M^−1
n (number of binding sites) ([3]; 310 K): 0.769 ± 0.009
fluorescence of HSA quenched by pesticide ([3]; 310 K): quenched
Kd ([3]; Ka (binding constant), 296 K): 2430 µM
Kd ([3]; Ka (binding constant), 303 K): 822 µM
Kd ([3]; Ka (binding constant), 310 K): 241 µM
ΔH^0 [3]: 30.0872 kcal/mol
ΔS^0 [3]: 475.061 J · mol^−1 · K^−1
Binding distance/r [3]: 2.316
Number of binding sites/n [3]: 0.7688
